Data as given in patent publication US20090042849A1, “Phosphorylation of 5-lipoxygenase at ser523 and uses thereof” (priority 2006, published 2009).
“Also recorded” adds a separate entry of the source.

Key:
cPLA2 = experiment: immunofluorescence of cPLA2 in adult rat cardiac myocytes; format: cell-based; details: PIO 10 μM, ATV 10 μM, H-89 0.1 μM, 12 hours
Procedure: (§1) Cardiac myocytes were isolated from adult Sprague-Dawley rats (250-300 g, male). Animals were heparinized (1,000-2,000 units i.p.) 5 min before being anesthetized with ketamine (100 mg/kg) and xylazine (10 mg/kg), and the hearts were removed and placed in ice-cold heart media solution (in mmol/l: 112 NaCl, 5.4 KCl, 1 MgCl2, 9 NaH2PO4, and 11.1 D-glucose; supplemented with 10 HEPES, 30 taurine, 2 DL-carnitine, and 2 creatine, pH. 7.4). The hearts were perfused retrogradely in a Langendorff apparatus with Ca^2+-free heart media for 5 min at 5 ml/min at 37° C., followed by perfusion with Ca^2+-free heart media containing collagenase II, 210 U/mg (Worthington, Lakewood, N.J.) for 20 min. After perfusion, both ventricles were removed from the heart and minced in collagenase II-containing heart media for 10-15 min. The cell solution was then washed several times to remove collagenase II and reexposed to 1.2 mM Ca2^+ over 25 min to produce Ca2^+-tolerant cardiac myocytes. […]
(§2) Immunofluorescent labeling was performed on paraffin sections (5-μm) of 4% formaldehyde-fixed rat cardiac tissue, as described previously (22). […] All the slides were viewed under an Olympus BX51 microscope [images recorded by a DP70 Digital camera (Olympus Optical Co., Ltd., Tokyo, Japan)] or confocal microscope (Bio-Rad 2100 (Hercules, Calif.).

5LO = experiment: immunoblotting of 5LO in cytosolic, membranous and nuclear fractions of myocardial cells; format: in vivo; details: rat myocardium
Procedure: Rats received: 1) […] (20 mg/kg) or 6) water alone (control). PIO and ATV were suspended in water and administered by gastric gavage once daily for 3 days; H-89 was dissolved in DMSO (final concentration 5% v/v) and injected intraperitoneally on the third day. Rats in groups 5 and 6 received water by gastric gavage once daily for 3 days. Rats in groups 1, 2 and 6 received intraperitoneal inkection of DMSO 5%. Sixteen hours after the injection, rats were euthanized and the hearts explanted for further analyses. In another experiment, rats received 3-day pretreatment with: 1) […]); or 5) LPS (10 mg/kg). Myocardial samples (0.25 g) were homogenized, mixed with Buffer A Mix [Hepes (pH 7.9) 10 mM, KCl 10 mM, EDTA 10 mM, DTT 100 mM, protease inhibitor cocktail, and IGEPAL 10%, (Sigma, St Lois, Mo.)], homogenized again and incubated for 15 min on ice, and centrifuged at 850×g for 10 min at 4° C. The supernatant was discharged, Buffer A Mix was added again and the samples incubated for an additional 15 min on ice, and centrifuged at 15,000×g for 3 min at 40 C. The supernatant contains the cytosolic fraction was collected. The pellet was resuspended in 150 μl of Buffer B Mix [Hepes (pH 7.9) 20 mM, NaCl 0.4M, EDTA 1 mM, glycerol 10%, protease inhibitor cocktail, and IGEPAL 10%], the tubes were shaked on ice at 200 rpm for 2 h, centrifuged at 15,000×g for 5 min at 4° C., and supernatants were collected as the nuclear fraction. […] The hearts were rapidly explanted, rinsed in cold PBS (pH 7.4), containing 0.16 mg/ml heparin to remove red blood cells and clots, frozen in liquid nitrogen and stored at -70° C. Myocardial samples from the anterior left ventricular wall were homogenized in RIPA lysis buffer (Santa Cruz Biotechnology, Santa Cruz, Calif.) and centrifuged at 14,000 rpm for 15 min at 4° C. The supernatant was collected and the total protein concentration was determined using the Lowry protein assay. […] The protein samples with loading buffer were run in 4-20% Tri-HCl Ready Gel at a 100V for 2 h until the desired molecular weight bands were separated. After electrophoresis, the gel was equilibrated in transfer buffer (25 mM Tris, 193 mM glycine, 0.1% SDS and 10% methanol) and the proteins were transferred to nitrocellulose membrane. The protein signals were quantified by an image-scanning-densitometer and the strength of each protein signal was normalized to the corresponding b-actin stain signal. Data are expressed as a ratio between the protein and the corresponding b-actin signal density.

5LO (P-5LO) = experiment: immunoblotting of 5LO and P-5LO in adult rat cardiac myocyte cultures; format: cell-based; details: H-89 0.1 μM with PIO+ATV
Procedure: as §1, with “min.” for “min. After perfusion, both ventricles were removed from the heart and minced in collagenase II-containing heart media for 10-15 min. The cell solution was then washed several times to remove collagenase II and reexposed to 1.2 mM Ca2^+ over 25 min to produce Ca2^+-tolerant cardiac myocytes.”
The hearts were rapidly explanted, rinsed in cold PBS (pH 7.4), containing 0.16 mg/ml heparin to remove red blood cells and clots, frozen in liquid nitrogen and stored at −70° C. […] The supernatant was collected and the total protein concentration was determined using the Lowry protein assay. […] The protein samples with loading buffer were run in 4-20% Tri-HCl Ready Gel at a 100V for 2 h until the desired molecular weight bands were separated. […] The protein signals were quantified by an image-scanning-densitometer and the strength of each protein signal was normalized to the corresponding b-actin stain signal. Data are expressed as a ratio between the protein and the corresponding b-actin signal density.

COX2 = experiment: immunofluorescence of COX2 in adult rat cardiac myocytes; format: cell-based
Procedure: as §1, §2

15ELXA = 15ELXA levels in adult rat cardiac myocytes (ELISA); format: cell-based
[1] = PIO 10 μM, ATV 10 μM, H-89 0.1 μM, 12 hours

Structure (SMILES)	cPLA2 expression (cPLA2)	5LO levels in the cytosolic fraction (5LO)	5LO levels in the membranous fraction (5LO)	effect on the 5LO phosphorylation by PIO+ATV (5LO (P-5LO))	effect on the increased expression of COX2 by PIO+ATV (COX2; H-89 0.1 μM with PIO+ATV)	COX2 expression (COX2; [1])	effect on the PIO+ATV augmentation of 15ELXA levels (15ELXA; H-89 0.1 μM with PIO+ATV)	levels of 15ELXA (15ELXA; [1])
O=S(=O)(NCCNC/C=C/c1ccc(Br)cc1)c1cccc2cnccc12 [H-89]	no effect	no significant effect	no significant effect	almost completely blocked	did not affect; also recorded: no effect	no effect	attenuated	no effect
CC(C)c1c(C(=O)Nc2ccccc2)c(-c2ccccc2)c(-c2ccc(F)cc2)n1CCC(O)CC(O)CC(=O)O (stereo not shown) [ATV, 7-[2-(4-fluorophenyl)-5-(1-methylethyl)-3-phenyl-4-(phenylcarbamoyl)-1H-pyrrol-1-yl]-3,5-dihydroxy-heptanoic acid]	–	small, yet significant increase	no detectable effect	–	–	–	–	–
